Earlier results on five compounds are cited in patent US6800300B1, “Method for treating autoimmune and alloimmune diseases” (Vasogen Ireland Limited, priority 2000, dated 2004).

Series [1] concerns TNF-α production by lymphocytes and macrophages.
The test system of a further series is serum TNF. Conditions: endotoxin-induced shock rat model.

Where a name gives a salt, the structure may show the parent alone.

Consider `COc1ccc(C2CNC(=O)C2)cc1OC1CCCC1` (centres unmarked) [4-(3-cyclopentyloxy4-methoxyphenyl)-2-pyrrolidone], for which the “production of TNF-α” value in series [1] is listed as “down-regulate the production of TNF-α”. Turning to `C[C@H](Cc1ccccc1)Nc1ncnc2c1ncn2[C@@H]1O[C@H](CO)[C@@H](O)[C@H]1O` [R-phenylisopropyladenosine (R-PIA), R-phenylisopropyladenosine], the “serum TNF concentrations” value with serum TNF is “reduce serum TNF concentrations”. With `CC(=O)O[C@H]1C[C@@]2(C)[C@@H](C[C@@H](O)[C@H]3[C@@]4(C)CC[C@@H](O)[C@@H](C)[C@@H]4CC[C@@]32C)/C1=C(\CCC=C(C)C)C(=O)O` [fusidic acid (sodiun salt), fusidic acid], the “serum TNF concentrations” value in the series on serum TNF is given as “reduce serum TNF concentrations”.

With `N=C(N)c1ccc(OCCCCCOc2ccc(C(=N)N)cc2)cc1` [pentamidine (isethionate), pentamidine], the “serum TNF concentrations” value in the series on serum TNF is recorded as “reduce serum TNF concentrations”. On to `CC(=O)CCCCn1c(=O)c2c(ncn2C)n(C)c1=O` [pentoxifylline], for which the “serum TNF concentrations” value in the series with serum TNF is recorded as “reduce serum TNF concentrations”.
